Marks after values point to notes of the source that are not given here. No end group written: not given here.
Experiments:
[1] = target: CXCL12WT self-association; conditions: in 100 mM sodium phosphate; cited from earlier work
CXCL12WT = CXCL12WT (Homo sapiens, UniProt P48061); conditions: ΔG = −RT ln Kd @ 298 K, calculated from Veldkamp et al.; cited from earlier work
CXCL12_1 = CXCL12_1 (Homo sapiens, UniProt P48061, I79C/L76C); experiment: 2D 1H-15N HSQC NMR titration of CXCR4 peptides into CXCL12_1; format: binding; conditions: ΔG = −RT ln Kd @ 298 K
CXCL12_2 = CXCL12_2 (Homo sapiens, UniProt P48061, A86C/L57C); experiment: 2D 1H-15N HSQC NMR titration of CXCR4 peptides into CXCL12_2; format: binding; conditions: ΔG = −RT ln Kd @ 298 K

Row | Substance | Kd of self-association [1] | ΔG (CXCL12WT) | ΔG (CXCL12_1) | ΔG (CXCL12_2)
1 | CXCL12WT: wild type chemokine CXCL12 (stromal cell-derived factor-1/SDF-1) | 140 µM |  |  | 
2 | GMMEGISIYTSDNYTEEMGSGDYDSMKEPCFREENANFNK [CXCR4_1–38] |  | −7.29 ^* kcal mol^−1 | -7.43 kcal/mol | -8.24 kcal/mol
